Activity data for 30 compounds are collected here from ChEMBL document CHEMBL3045150, “Synthesis and structureactivity relationship studies on novel 8-amino-3-[2-(4-fluorophenoxy)ethyl]-1,3-diazaspiro[4.5]decane-2,4-dione derivatives as anticonvulsant agents” (Med Chem Res, 2013).

In data set [1] the test system is Mus musculus. The experiment in a line: Neurotoxicity in albino Mus musculus (mouse) assessed as motor impairment at 100 mg/kg, po measured at 4 hr by rotarod test. In kind it is toxicity, organism-based. Also noted: dose 100 mg/kg, route oral. To be noted: in vivo. In general terms: In the rotarod test animals must keep their balance on a rotating rod.
Data set [2] has as its system Mus musculus. Briefly: Anticonvulsant activity in albino Mus musculus (mouse) assessed as protection against maximal electric shock-induced seizures at 100 mg/kg, ip administered 30 min prior to maximal electric shock-challenge measured up to 4 hr relative to control. The class given is functional. To be noted: route intraperitoneal.
The subject of data set [3] is Mus musculus. Briefly: Neurotoxicity in albino Mus musculus (mouse) assessed as motor impairment at 100 mg/kg, po measured at 2 hr by rotarod test. The class given is toxicity, organism-based. Also noted: dose 100 mg/kg, route oral. Particulars: in vivo.

For `O=C1NC2(CCC(NS(=O)(=O)c3cccc(F)c3)CC2)C(=O)N1CCOc1ccc(F)cc1` (stereo not given), the Activity entry in data set [1] is reported as “Non-toxic”; in data set [2], 6.5%; in data set [3], “Non-toxic”.
Turning to `Cc1cc(C)cc(S(=O)(=O)NC2CCC3(CC2)NC(=O)N(CCOc2ccc(F)cc2)C3=O)c1` (stereo not given), the Activity entry in data set [1] is listed as “Non-toxic”; in data set [2], 43.12%; in data set [3], “Non-toxic”.
In the case of `CCc1ccc(S(=O)(=O)NC2CCC3(CC2)NC(=O)N(CCOc2ccc(F)cc2)C3=O)cc1` (stereo not given), the Activity result in data set [1] is “Non-toxic”; in data set [2] it was 1.23%; in data set [3], “Non-toxic”.
For the compound `Cc1cccc(S(=O)(=O)NC2CCC3(CC2)NC(=O)N(CCOc2ccc(F)cc2)C3=O)c1` (stereo not given), the figures for the Activity result in data set [1], in data set [2] and in data set [3] were “Non-toxic”, 4.55% and “Non-toxic”, respectively.
Consider `N#Cc1ccccc1S(=O)(=O)NC1CCC2(CC1)NC(=O)N(CCOc1ccc(F)cc1)C2=O` (stereo not given), for which the Activity entry is listed as “Non-toxic” in data set [1], 4.51% in data set [2] and “Non-toxic” in data set [3].
On to `O=C(NC1CCC2(CC1)NC(=O)N(CCOc1ccc(F)cc1)C2=O)OCc1ccccc1Cl` (stereo not given), for which the figures for the Activity result in data set [1], in data set [2] and in data set [3] were “Non-toxic”, 48.82% and “Non-toxic”, respectively.
For `O=C(NC1CCC2(CC1)NC(=O)N(CCOc1ccc(F)cc1)C2=O)Oc1ccc(Cl)cc1` (stereo not given), the figures for the Activity result in data set [1], in data set [2] and in data set [3] were “Non-toxic”, 59.29% and “Non-toxic”, respectively.
Consider `Cc1ccc(C(=O)NC2CCC3(CC2)NC(=O)N(CCOc2ccc(F)cc2)C3=O)cc1` (stereo not given), for which the Activity entry in data set [1] is recorded as “Non-toxic”; in data set [2] it was 79.58%; in data set [3] it was “Non-toxic”.
In the case of `O=C(Cc1ccccc1)NC1CCC2(CC1)NC(=O)N(CCOc1ccc(F)cc1)C2=O` (stereo not given), the results for the Activity result in data set [1], in data set [2] and in data set [3] were “Non-toxic”, 47.21% and “Non-toxic”, respectively.
For the compound `O=C(NC1CCC2(CC1)NC(=O)N(CCOc1ccc(F)cc1)C2=O)c1ccccc1F` (stereo not given), the Activity entry in data set [1] is listed as “Toxic”; in data set [2], 48.12%; in data set [3], “Toxic”.
Regarding `Cc1cccc(C(=O)NC2CCC3(CC2)NC(=O)N(CCOc2ccc(F)cc2)C3=O)c1` (stereo not given), the Activity result is “Non-toxic” in data set [1], 78.62% in data set [2] and “Non-toxic” in data set [3].
Turning to `O=C(NC1CCC2(CC1)NC(=O)N(CCOc1ccc(F)cc1)C2=O)c1cccc(Cl)c1` (stereo not given), the Activity entry in data set [1] is “Toxic”; in data set [2], 58.61%; in data set [3], “Toxic”.
Take `O=C(NC1CCC2(CC1)NC(=O)N(CCOc1ccc(F)cc1)C2=O)c1ccccc1` (stereo not given): the Activity entry in data set [1] is listed as “Non-toxic”; in data set [2], 55.78%; in data set [3], “Non-toxic”.
Regarding `O=C(NC1CCC2(CC1)NC(=O)N(CCOc1ccc(F)cc1)C2=O)c1cccc(F)c1` (stereo not given), the Activity result in data set [1] is recorded as “Toxic”; in data set [2], 58.02%; in data set [3], “Toxic”.
Regarding `O=C(NC1CCC2(CC1)NC(=O)N(CCOc1ccc(F)cc1)C2=O)c1ccc(F)cc1` (stereo not given), the Activity result is listed as “Toxic” in data set [1], 57.94% in data set [2] and “Toxic” in data set [3].
`O=C(NC1CCC2(CC1)NC(=O)N(CCOc1ccc(F)cc1)C2=O)Oc1ccccc1` (stereo not given): the figures for the Activity result in data set [1], in data set [2] and in data set [3] were “Non-toxic”, 56.89% and “Non-toxic”, respectively.
As for `O=C(NC1CCC2(CC1)NC(=O)N(CCOc1ccc(F)cc1)C2=O)c1ccc(Cl)cc1` (stereo not given), the values for the Activity entry in data set [1], in data set [2] and in data set [3] were “Toxic”, 49.83% and “Toxic”, respectively.
As for `O=C(NC1CCC2(CC1)NC(=O)N(CCOc1ccc(F)cc1)C2=O)c1ccccc1C(F)(F)F` (stereo not given), the Activity entry in data set [1] was “Non-toxic”; in data set [2], 79.32%; in data set [3], “Non-toxic”.
As for `O=C(NC1CCC2(CC1)NC(=O)N(CCOc1ccc(F)cc1)C2=O)c1ccccc1Cl` (stereo not given), the Activity result is reported as “Non-toxic” in data set [1], 49.41% in data set [2] and “Non-toxic” in data set [3].
Consider `CC(C)(C)c1ccc(C(=O)NC2CCC3(CC2)NC(=O)N(CCOc2ccc(F)cc2)C3=O)cc1` (stereo not given), for which the Activity result in data set [1] is on record as “Non-toxic”; in data set [2] it was 48.15%; in data set [3], “Non-toxic”.
With `Cc1ccc(S(=O)(=O)NC2CCC3(CC2)NC(=O)N(CCOc2ccc(F)cc2)C3=O)cc1C` (stereo not given), the Activity result in data set [1] is “Non-toxic”; in data set [2] it was 42.61%; in data set [3] it was “Non-toxic”.
`Cc1ccccc1S(=O)(=O)NC1CCC2(CC1)NC(=O)N(CCOc1ccc(F)cc1)C2=O` (stereo not given): the Activity result in data set [1] is recorded as “Non-toxic”; in data set [2], 13%; in data set [3] it was “Non-toxic”.
In the case of `O=C1NC2(CCC(NS(=O)(=O)c3cccc(Br)c3)CC2)C(=O)N1CCOc1ccc(F)cc1` (stereo not given), the Activity entry in data set [1] is listed as “Non-toxic”; in data set [2] it was 7.41%; in data set [3], “Non-toxic”.
Turning to `O=C1NC2(CCC(NS(=O)(=O)c3ccccc3F)CC2)C(=O)N1CCOc1ccc(F)cc1` (stereo not given), the Activity entry is recorded as “Non-toxic” in data set [1], 4.94% in data set [2] and “Non-toxic” in data set [3].
As to `Cc1ccc(C)c(S(=O)(=O)NC2CCC3(CC2)NC(=O)N(CCOc2ccc(F)cc2)C3=O)c1` (stereo not given), the figures for the Activity entry in data set [1], in data set [2] and in data set [3] were “Non-toxic”, 43.95% and “Non-toxic”, respectively.
For the compound `Cc1ccc(S(=O)(=O)NC2CCC3(CC2)NC(=O)N(CCOc2ccc(F)cc2)C3=O)cc1` (stereo not given), the Activity result in data set [1] is recorded as “Non-toxic”; in data set [2] it was 1.14%; in data set [3], “Non-toxic”.
As for `O=C1NC2(CCC(NS(=O)(=O)c3cccc(Cl)c3)CC2)C(=O)N1CCOc1ccc(F)cc1` (stereo not given), the Activity result in data set [1] is “Toxic”; in data set [2] it was 4.55%; in data set [3], “Toxic”.
Consider `Cc1cc(F)ccc1S(=O)(=O)NC1CCC2(CC1)NC(=O)N(CCOc1ccc(F)cc1)C2=O` (stereo not given), for which the Activity entry in data set [1] is “Non-toxic”; in data set [2] it was 3.25%; in data set [3], “Non-toxic”.
Take `COc1ccc(S(=O)(=O)NC2CCC3(CC2)NC(=O)N(CCOc2ccc(F)cc2)C3=O)cc1` (stereo not given): the Activity result in data set [1] is reported as “Non-toxic”; in data set [2] it was 9.23%; in data set [3] it was “Non-toxic”.
In the case of `Cc1ccc(CS(=O)(=O)NC2CCC3(CC2)NC(=O)N(CCOc2ccc(F)cc2)C3=O)cc1` (stereo not given), the Activity result is reported as “Toxic” in data set [1], 12.6% in data set [2] and “Toxic” in data set [3].
